The values below come from PubChem BioAssay (NCI).

Among the test systems are DU-145 prostate; HCT-116 colon; KM12 colon; MDA-MB-435; MOLT-4 leukemia; OVCAR-3 ovarian; PC-3 prostate; SN12C renal; SW-620 colon; UACC-62 melanoma.
Holding throughout (test): growth of human tumour cells (NCI), 48 h

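Method: 48-hour compound exposure of cells in 96-well plates, five concentrations, linear interpolation of endpoints. GI50 = concentration required for 50% inhibition of growth. The concentration for full growth arrest is given as TGI.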

`O=[N+]([O-])C1C(c2ccccc2)C12c1ccccc1-c1ccccc12` (stereo not given): the GI50 is 0.733 µM in the test on DU-145 prostate; 0.371 µM in the test on HCT-116 colon; 0.931 µM in the test with KM12 colon; 0.188 µM with MDA-MB-435; 0.746 µM in the test on MOLT-4 leukemia; 0.783 µM in the test on OVCAR-3 ovarian. For the same compound, the GI50 was 0.947 µM with PC-3 prostate, 1.67 µM with SN12C renal, 0.424 µM in the test on SW-620 colon and 0.544 µM in the test on UACC-62 melanoma. In addition, the TGI was 3.66 µM in the test with DU-145 prostate; 11.6 µM in the test on HCT-116 colon; 16.6 µM in the test on KM12 colon; 0.454 µM in the test on MDA-MB-435; more than 26.3 µM in the test on MOLT-4 leukemia; 3.59 µM with OVCAR-3 ovarian. Also, the TGI with PC-3 prostate is more than 100 µM; in the test on SN12C renal, 26 µM; in the test on SW-620 colon, 8.2 µM; in the test on UACC-62 melanoma, 15.6 µM.

With `COc1cccc(C2CC(C)(N3CCCC3)Oc3cc4c(cc32)OCO4)c1O` (stereo not given), the TGI with DU-145 prostate was more than 96.3 µM; with HCT-116 colon, more than 63.6 µM; in the test on KM12 colon, more than 100 µM; with MDA-MB-435 it was 18.4 µM; in the test with MOLT-4 leukemia it was more than 73.4 µM; with OVCAR-3 ovarian it was 46.1 µM. The TGI in the test with PC-3 prostate is more than 76.1 µM; in the test with SN12C renal, 84.9 µM; in the test with SW-620 colon it was more than 100 µM; with UACC-62 melanoma, more than 90.1 µM.

Turning to `O=C1NCc2ccc3c(-c4cccc(Cl)c4)c[nH]c3c21`, the GI50 was 0.279 µM with DU-145 prostate; 0.217 µM with HCT-116 colon; 0.196 µM in the test with KM12 colon; 0.0604 µM in the test on MDA-MB-435; 0.256 µM in the test on MOLT-4 leukemia; 0.18 µM in the test with OVCAR-3 ovarian. The GI50 is 0.281 µM in the test with PC-3 prostate, 0.438 µM with SN12C renal, 0.195 µM in the test on SW-620 colon and 0.278 µM in the test on UACC-62 melanoma. For the same compound, the TGI with DU-145 prostate is more than 50 µM; in the test with HCT-116 colon, 9.07 µM; with KM12 colon, more than 29.7 µM; in the test on MDA-MB-435, 0.239 µM; with MOLT-4 leukemia, more than 50 µM; with OVCAR-3 ovarian, more than 50 µM. Moreover, the TGI in the test with PC-3 prostate, in the test with SN12C renal, in the test with SW-620 colon and in the test on UACC-62 melanoma was more than 50 µM each time.

As to `COc1cc(/C(C#N)=C/c2ccc3c(c2OC)OCO3)cc2c1OCO2`, the GI50 with DU-145 prostate was 0.122 µM; with HCT-116 colon it was 0.0492 µM; in the test on KM12 colon it was 0.0424 µM; in the test on MDA-MB-435, 0.0209 µM; with MOLT-4 leukemia, 0.111 µM; in the test with OVCAR-3 ovarian it was 0.0272 µM. Moreover, the GI50 was 0.0967 µM with PC-3 prostate, 0.695 µM with SN12C renal, 0.0412 µM with SW-620 colon and 0.0531 µM in the test on UACC-62 melanoma. The TGI in the test on DU-145 prostate was 3.63 µM; with HCT-116 colon it was more than 35.7 µM; in the test with KM12 colon, more than 100 µM; in the test with MDA-MB-435, 0.0664 µM; with MOLT-4 leukemia, 19.9 µM; with OVCAR-3 ovarian, 0.0774 µM. Moreover, the TGI in the test on PC-3 prostate was more than 78.4 µM; in the test on SN12C renal, more than 100 µM; in the test on SW-620 colon it was more than 100 µM; with UACC-62 melanoma, 22.3 µM.

Consider `COc1cc(C2C=C(c3cccc(NC(C)=O)c3)Nc3ncnn32)cc(OC)c1OC` (stereo not given), for which the GI50 is 0.44 µM with DU-145 prostate; 0.424 µM in the test on HCT-116 colon; 0.396 µM in the test on KM12 colon; 0.117 µM in the test on MDA-MB-435; 1.65 µM in the test with MOLT-4 leukemia; 0.236 µM in the test with OVCAR-3 ovarian. In addition, the GI50 is 1.13 µM in the test with PC-3 prostate, 0.489 µM in the test on SN12C renal, 0.313 µM with SW-620 colon and 0.262 µM in the test on UACC-62 melanoma. For the same compound, the TGI with DU-145 prostate is 7.34 µM; in the test with HCT-116 colon, more than 70.2 µM; in the test on KM12 colon it was more than 100 µM; in the test on MDA-MB-435, 0.579 µM; in the test with MOLT-4 leukemia it was more than 100 µM; in the test with OVCAR-3 ovarian, 0.645 µM. The TGI with PC-3 prostate, with SN12C renal, in the test on SW-620 colon and in the test with UACC-62 melanoma was more than 100 µM each time.

Consider `COc1ccc2c(c1)/C(=C\c1c(C)nc3sc(C)cn13)C(=O)N2C`, for which the GI50 was 11 µM in the test with DU-145 prostate; 6 µM with HCT-116 colon; 4.87 µM in the test on KM12 colon; 1.51 µM in the test on MDA-MB-435; 3.76 µM in the test on MOLT-4 leukemia; 1.43 µM with OVCAR-3 ovarian. The GI50 in the test with PC-3 prostate is 6.9 µM; in the test with SN12C renal it was 4.7 µM; in the test on SW-620 colon it was 3.25 µM; in the test on UACC-62 melanoma, 1.69 µM. Also, the TGI in the test on DU-145 prostate is more than 100 µM; in the test on HCT-116 colon, more than 100 µM; with KM12 colon, 43.4 µM; with MDA-MB-435, 5.72 µM; with MOLT-4 leukemia it was more than 100 µM; in the test on OVCAR-3 ovarian it was 3.99 µM. The TGI in the test on PC-3 prostate was 62.4 µM; in the test on SN12C renal, 32.3 µM; in the test on SW-620 colon, 18 µM; with UACC-62 melanoma it was 10 µM.

Consider `COc1ccc(-c2nn3ncccc3c2-c2ccnc(Nc3ccc(Cl)c(C(F)(F)F)c3)n2)cc1`, for which the GI50 with DU-145 prostate is 14 µM; with HCT-116 colon, 8.01 µM; with KM12 colon it was 9.89 µM; in the test on MDA-MB-435, 9.69 µM; in the test with MOLT-4 leukemia, 10.9 µM; with OVCAR-3 ovarian, 10.5 µM. Moreover, the GI50 with PC-3 prostate is 6.2 µM; with SN12C renal, 9.54 µM; in the test with SW-620 colon, 14.4 µM; in the test with UACC-62 melanoma it was 9.36 µM. Also, the TGI with DU-145 prostate, with HCT-116 colon, with KM12 colon, in the test on MDA-MB-435, with MOLT-4 leukemia and with OVCAR-3 ovarian was more than 25 µM throughout. The TGI in the test with PC-3 prostate, with SN12C renal, with SW-620 colon and in the test on UACC-62 melanoma was more than 25 µM throughout.

As to `C=CCn1c2c(c3ccccc3c1=O)C(=O)c1ccccc1-2`, the TGI in the test with DU-145 prostate is more than 100 µM; in the test on HCT-116 colon it was more than 100 µM; with KM12 colon, more than 100 µM; in the test with MDA-MB-435 it was more than 100 µM; with MOLT-4 leukemia, 16.8 µM; in the test on OVCAR-3 ovarian, more than 100 µM. For the same compound, the TGI in the test with PC-3 prostate, with SN12C renal, with SW-620 colon and in the test with UACC-62 melanoma was more than 100 µM in each case.
